# Data reported in ChEMBL document CHEMBL5352441, “Modulation of FLT3-ITD and CDK9 in acute myeloid leukaemia cells by novel proteolysis targeting chimera (PROTAC)” (2022).
# Active and inactive are the calls of the source. The calls are words filed in the database; no cut-off is given here.
# What was measured:
# MV4-11 [1] = assay: Induction of cell cycle arrest in CRBN-deficient human MV4-11 cells assessed as accumulation of cells at G1 phase at 0.5 uM incubated for 16 hrs by PI staining based flow cytometry analysis (reference value: 54.05%); format: functional
# [2] = test system: Receptor-type tyrosine-protein kinase FLT3 (Homo sapiens), P36888 [UNDEFINED MUTATION]; assay: Inhibition of FLT3 in human MV4-11 cells harboring FLT3-ITD mutation assessed as reduction in ERK1/2 phosphorylation at T202/Y204 residue at 0.004 to 2.5 uM incubated for 16 hrs by immunoblot analysis; format: cell-based; conditions: dose 0.004-2.5 µM
# MV4-11 [3] = assay: Induction of cell cycle arrest in CRBN-deficient human MV4-11 cells assessed as accumulation of cells at G2/M phase at 0.5 uM incubated for 16 hrs by PI staining based flow cytometry analysis (reference value: 9.34%); format: functional
# [4] = target: CDK9/cyclin T1 (Homo sapiens) (UniProt O60563+P50750); assay: Inhibition of human CDK9/Cyclin T1 assessed as residual activity at 100 nM relative to control; format: protein-complex assay
# MV4-11 [5] = assay: Induction of cell cycle arrest in human MV4-11 cells assessed as accumulation of cells at subG1 phase at 0.004 uM incubated for 16 hrs by PI staining based flow cytometry analysis (reference value: 10.51%); format: functional
# [6] = target: Protein cereblon/Receptor-type tyrosine-protein kinase FLT3 (Homo sapiens) (UniProt P36888+Q96SW2); assay: PROTAC activity at CRBN/FLT3 in human MV4-11 cells at 0.1 to 0.5 uM preincubated for 90 mins with 4-hydroxythalidomide followed by compound addition and further incubated for 16 hrs by immunoblot analysis; format: cell-based; conditions: dose 0.1-0.5 µM
# MV4-11 [7] = assay: Downregulation of HOXA9 gene expression in human MV4-11 cells incubated for 4 hrs by qRT-PCR analysis; format: functional, cell-based; conditions: dose 0.004-2.5 µM
# MV4-11 [8] = assay: Induction of apoptosis in CRBN-deficient human MV4-11 cells assessed as activation of caspase 3 at 0.004 to 25 uM incubated for 16 hrs in presence of Ac-DEVD-AMC by fluorescence microplate reader analysis; format: functional, cell-based; conditions: dose 0.004-25 µM
# MV4-11 [9] = assay: Induction of cell cycle arrest in CRBN-deficient human MV4-11 cells assessed as accumulation of cells at sub-G1 phase at 0.004 uM incubated for 16 hrs by PI staining based flow cytometry analysis (reference value: 12.52%); format: functional
# MV4-11 [10] = assay: Induction of cell cycle arrest in human MV4-11 cells assessed as accumulation of cells at S phase at 0.02 uM incubated for 16 hrs by PI staining based flow cytometry analysis (reference value: 26.16%); format: functional
# K562 = assay: Antiproliferative activity against human K562 cells assessed as cell growth inhibition incubated for 72 hrs by resazurin dye based fluorescence analysis; format: functional
# MV4-11 [11] = assay: Induction of cell cycle arrest in CRBN-deficient human MV4-11 cells assessed as accumulation of cells at S phase at 0.1 uM incubated for 16 hrs by PI staining based flow cytometry analysis (reference value: 36.91%); format: functional
# [12] = target: Protein cereblon/Cyclin-dependent kinase 9 (Homo sapiens) (UniProt P50750+Q96SW2); assay: PROTAC activity at CRBN/CDK9 in human MV4-11 cells harboring FLT3-ITD mutation assessed as induction of protein degradation incubated for 16 hrs by immunoblot analysis; format: cell-based; conditions: dose 0.004-2.5 µM
# MV4-11 [13] = assay: Induction of cell cycle arrest in human MV4-11 cells assessed as accumulation of cells at subG1 phase at 0.1 uM incubated for 16 hrs by PI staining based flow cytometry analysis (reference value: 10.51%); format: functional
# MV4-11 [14] = assay: Downregulation of Bcl-2 gene expression in human MV4-11 cells incubated for 4 hrs by qRT-PCR analysis; format: functional, cell-based; conditions: dose 0.004-2.5 µM
# [15] = Selectivity index, ratio of GI50 for antiproliferative activity against CRBN-deficient human MV4-11 cells to GI50 for antiproliferative activity against human MV4-11 cells harboring FLT3-ITD mutation; format: functional
# MV4-11 [16] = assay: Downregulation of MEISI gene expression in human MV4-11 cells incubated for 4 hrs by qRT-PCR analysis; format: functional, cell-based; conditions: dose 0.004-2.5 µM
# [17] = target: Receptor-type tyrosine-protein kinase FLT3 (Homo sapiens) (UniProt P36888); assay: Inhibition of FLT3 signalling pathway in human MV4-11 cells assessed as reduction in STAT5 phosphorylation at Y694 residues at 0.1 to 0.5 uM preincubated for 90 mins with 4-hydroxythalidomide followed by compound addition and further incubated for 16 hrs by immunoblot analysis; format: cell-based; conditions: dose 0.1-0.5 µM
# Kasumi 1 = assay: Antiproliferative activity against human Kasumi 1 cells assessed as cell growth inhibition incubated for 72 hrs by resazurin dye based fluorescence analysis; format: functional
# MV4-11 [18] = assay: Induction of cell cycle arrest in CRBN-deficient human MV4-11 cells assessed as accumulation of cells at S phase at 0.5 uM incubated for 16 hrs by PI staining based flow cytometry analysis (reference value: 36.91%); format: functional
# MV4-11 [19] = assay: Induction of apoptosis in human MV4-11 cells assessed as activation of caspase 7 at 0.1 to 0.5 uM preincubated for 90 mins with 4-hydroxythalidomide followed by compound addition and further incubated for 16 hrs in presence of Ac-DEVD-AMC by fluorescence microplate reader analysis; format: functional, cell-based; conditions: dose 0.1-0.5 µM
# MV4-11 [20] = assay: Downregulation of Myb gene expression in human MV4-11 cells incubated for 4 hrs by qRT-PCR analysis; format: functional, cell-based; conditions: dose 0.004-2.5 µM
# MV4-11 [21] = assay: Induction of cell cycle arrest in CRBN-deficient human MV4-11 cells assessed as accumulation of cells at S phase at 0.02 uM incubated for 16 hrs by PI staining based flow cytometry analysis (reference value: 36.91%); format: functional
# MV4-11 [22] = assay: Induction of cell cycle arrest in human MV4-11 cells assessed as accumulation of cells at G1 phase at 0.5 uM incubated for 16 hrs by PI staining based flow cytometry analysis (reference value: 62.97%); format: functional
# MV4-11 [23] = assay: Induction of cell cycle arrest in human MV4-11 cells assessed as accumulation of cells at S phase at 2.5 uM incubated for 16 hrs by PI staining based flow cytometry analysis (reference value: 26.16%); format: functional
# MV4-11 [24] = assay: Induction of cell cycle arrest in CRBN-deficient human MV4-11 cells assessed as accumulation of cells at G1 phase at 0.02 uM incubated for 16 hrs by PI staining based flow cytometry analysis (reference value: 54.05%); format: functional
# MV4-11 [25] = assay: Induction of cell cycle arrest in human MV4-11 cells assessed as accumulation of cells at S phase at 0.1 uM incubated for 16 hrs by PI staining based flow cytometry analysis (reference value: 26.16%); format: functional
# [26] = target: Receptor-type tyrosine-protein kinase FLT3 (Homo sapiens) (UniProt P36888); assay: Stabilization of FLT3 in CRBN-deficient human MV4-11 at 0.004 to 2.5 uM incubated for 16 hrs by immunoblot analysis; format: cell-based; conditions: dose 0.004-2.5 µM
# MV4-11 [27] = assay: Induction of cell cycle arrest in human MV4-11 cells assessed as accumulation of cells at G2/M phase at 0.5 uM incubated for 16 hrs by PI staining based flow cytometry analysis (reference value: 10.86%); format: functional
# [28] = target: Receptor-type tyrosine-protein kinase FLT3 (Homo sapiens) (UniProt P36888); assay: Inhibition of FLT3 signalling pathway in human MV4-11 cells assessed as reduction in ERK1/2 phosphorylation at T202/Y204 residues at 0.1 to 0.5 uM preincubated for 90 mins with 4-hydroxythalidomide followed by compound addition and further incubated for 16 hrs by immunoblot analysis; format: cell-based; conditions: dose 0.1-0.5 µM
# Sequence of Receptor-type tyrosine-protein kinase FLT3 (Homo sapiens) (P36888 whole entry): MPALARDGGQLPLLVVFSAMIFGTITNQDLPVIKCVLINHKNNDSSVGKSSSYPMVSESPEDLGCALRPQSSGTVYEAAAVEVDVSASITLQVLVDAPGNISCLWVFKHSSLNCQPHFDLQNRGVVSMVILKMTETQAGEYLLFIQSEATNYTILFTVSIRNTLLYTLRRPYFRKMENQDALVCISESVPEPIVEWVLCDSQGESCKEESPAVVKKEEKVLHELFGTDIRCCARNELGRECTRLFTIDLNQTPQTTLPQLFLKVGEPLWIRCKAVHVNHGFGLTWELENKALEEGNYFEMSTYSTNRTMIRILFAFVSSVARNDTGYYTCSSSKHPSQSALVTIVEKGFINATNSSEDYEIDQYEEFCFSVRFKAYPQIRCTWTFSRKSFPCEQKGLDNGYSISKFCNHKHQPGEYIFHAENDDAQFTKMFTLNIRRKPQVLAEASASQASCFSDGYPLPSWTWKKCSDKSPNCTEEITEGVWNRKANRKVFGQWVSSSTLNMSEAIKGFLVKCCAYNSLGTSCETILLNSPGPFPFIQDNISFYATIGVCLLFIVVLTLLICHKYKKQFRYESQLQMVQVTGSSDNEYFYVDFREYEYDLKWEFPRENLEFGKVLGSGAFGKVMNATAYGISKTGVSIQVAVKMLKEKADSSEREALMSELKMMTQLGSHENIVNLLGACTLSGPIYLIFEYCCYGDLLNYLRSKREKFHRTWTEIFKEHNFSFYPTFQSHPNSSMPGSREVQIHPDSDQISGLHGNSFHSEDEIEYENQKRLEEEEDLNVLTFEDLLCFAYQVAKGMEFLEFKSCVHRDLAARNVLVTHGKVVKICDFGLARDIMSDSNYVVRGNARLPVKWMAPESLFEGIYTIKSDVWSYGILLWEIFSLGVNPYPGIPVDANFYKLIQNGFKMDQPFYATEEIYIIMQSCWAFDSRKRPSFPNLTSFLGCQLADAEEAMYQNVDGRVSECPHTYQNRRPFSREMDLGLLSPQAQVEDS
# Sequence of Protein cereblon/Receptor-type tyrosine-protein kinase FLT3 (Homo sapiens) (P36888 27-993 limits assumed): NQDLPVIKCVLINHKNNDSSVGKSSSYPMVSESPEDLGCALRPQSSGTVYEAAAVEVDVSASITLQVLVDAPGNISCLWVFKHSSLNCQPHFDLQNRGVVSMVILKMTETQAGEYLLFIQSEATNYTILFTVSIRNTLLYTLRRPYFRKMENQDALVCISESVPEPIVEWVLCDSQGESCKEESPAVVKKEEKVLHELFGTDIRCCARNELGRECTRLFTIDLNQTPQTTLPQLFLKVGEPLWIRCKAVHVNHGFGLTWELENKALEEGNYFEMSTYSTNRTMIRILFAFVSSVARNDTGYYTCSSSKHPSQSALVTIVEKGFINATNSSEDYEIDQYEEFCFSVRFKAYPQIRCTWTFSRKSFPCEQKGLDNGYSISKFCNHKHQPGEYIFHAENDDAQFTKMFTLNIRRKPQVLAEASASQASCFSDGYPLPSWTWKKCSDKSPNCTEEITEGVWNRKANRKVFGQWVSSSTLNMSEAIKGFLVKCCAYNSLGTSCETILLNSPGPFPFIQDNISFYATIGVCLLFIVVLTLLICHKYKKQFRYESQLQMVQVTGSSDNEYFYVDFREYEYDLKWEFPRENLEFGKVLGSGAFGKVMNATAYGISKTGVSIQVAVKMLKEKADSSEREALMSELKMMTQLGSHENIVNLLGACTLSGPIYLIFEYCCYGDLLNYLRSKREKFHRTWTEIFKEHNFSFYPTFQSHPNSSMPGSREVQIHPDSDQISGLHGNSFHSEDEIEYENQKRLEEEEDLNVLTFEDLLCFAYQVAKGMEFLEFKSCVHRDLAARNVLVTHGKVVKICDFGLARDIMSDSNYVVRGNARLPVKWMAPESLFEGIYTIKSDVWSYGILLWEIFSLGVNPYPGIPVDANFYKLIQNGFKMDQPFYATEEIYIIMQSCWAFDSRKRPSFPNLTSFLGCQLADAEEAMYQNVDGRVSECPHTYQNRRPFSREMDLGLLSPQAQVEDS
# Sequence of Protein cereblon/Receptor-type tyrosine-protein kinase FLT3 (Homo sapiens) (Q96SW2 whole entry partner): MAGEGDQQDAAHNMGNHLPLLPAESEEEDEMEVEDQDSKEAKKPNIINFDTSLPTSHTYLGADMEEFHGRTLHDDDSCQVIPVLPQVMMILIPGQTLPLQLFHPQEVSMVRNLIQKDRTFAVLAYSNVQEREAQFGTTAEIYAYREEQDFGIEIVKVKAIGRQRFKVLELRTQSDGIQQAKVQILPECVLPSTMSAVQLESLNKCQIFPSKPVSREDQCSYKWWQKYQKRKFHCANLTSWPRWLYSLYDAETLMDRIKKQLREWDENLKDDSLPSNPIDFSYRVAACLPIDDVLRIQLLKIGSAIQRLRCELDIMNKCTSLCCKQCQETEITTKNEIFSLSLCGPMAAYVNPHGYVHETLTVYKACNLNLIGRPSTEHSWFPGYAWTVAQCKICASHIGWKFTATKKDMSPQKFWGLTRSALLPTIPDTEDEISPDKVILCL
# Sequence of Protein cereblon/Cyclin-dependent kinase 9 (Homo sapiens) (P50750 whole entry, looked up): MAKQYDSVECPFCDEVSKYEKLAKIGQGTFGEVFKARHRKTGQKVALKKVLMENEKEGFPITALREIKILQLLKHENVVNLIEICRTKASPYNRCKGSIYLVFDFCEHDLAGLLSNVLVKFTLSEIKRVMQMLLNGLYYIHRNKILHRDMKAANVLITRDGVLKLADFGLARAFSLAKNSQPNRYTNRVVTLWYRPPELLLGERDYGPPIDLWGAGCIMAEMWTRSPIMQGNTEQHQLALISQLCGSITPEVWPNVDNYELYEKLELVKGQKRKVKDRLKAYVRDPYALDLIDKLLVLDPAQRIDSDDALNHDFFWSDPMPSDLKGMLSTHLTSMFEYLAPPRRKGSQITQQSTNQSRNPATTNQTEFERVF
# Sequence of Protein cereblon/Cyclin-dependent kinase 9 (Homo sapiens) (Q96SW2 whole entry, looked up): as the sequence (Q96SW2 whole entry partner) above
# Sequence of Receptor-type tyrosine-protein kinase FLT3 (Homo sapiens), P36888 [UNDEFINED MUTATION] (P36888 whole entry, looked up, change not shown): as the sequence (P36888 whole entry) above
compound,measurement,setting,value
NC1CCC(Nc2nc(Nc3ccc(N4CCN(CCOCCOCCNC(=O)CNc5cccc6c5C(=O)N(C5CCC(=O)NC5=O)C6=O)CC4)cc3)c3ncn(C4CCCC4)c3n2)CC1 (stereo not given),Activity,MV4-11 [1],90.95%
same,inhibition,[2],Active
same,Activity,MV4-11 [3],3.91%
same,Activity,[4],8%
same,Activity,MV4-11 [5],11.53%
same,Activity,[6],inactive
same,Activity,MV4-11 [7],Dose-Dependent Effect
same,Activity,MV4-11 [8],inactive
same,Activity,MV4-11 [9],12.68%
same,Activity,MV4-11 [10],12.41%
same,GI50,K562,> 10 µM
same,Activity,MV4-11 [11],6.07%
same,Activity,[12],Dose-Dependent Effect
same,Activity,MV4-11 [13],20.86%
same,Activity,MV4-11 [14],Dose-Dependent Effect
same,RatioGI50,[15],2
same,Activity,MV4-11 [16],Dose-Dependent Effect
same,inhibition,[17],Active
same,GI50,Kasumi 1,> 10 µM
same,Activity,MV4-11 [18],5.13%
same,Activity,MV4-11 [19],inactive
same,Activity,MV4-11 [20],Dose-Dependent Effect
same,Activity,MV4-11 [21],17.04%
same,Activity,MV4-11 [22],74.6%
same,Activity,MV4-11 [23],34.87%
same,Activity,MV4-11 [24],76.96%
same,Activity,MV4-11 [25],6.42%
same,Activity,[26],Active
same,Activity,MV4-11 [27],6.85%
same,inhibition,[28],Active
